Where a name gives a salt, the structure may show the parent alone.
Assay: Adverse reactions (NCI-CTC Version 2.0), maximum tolerated and recommended dose of CPT-11
Format: in vivo, human patients
Details: with TS-1 80 mg/m^2/day and radiation 45 Gy
Protocol: A Phase I/II clinical study of preoperative chemoradiotherapy with TS-1/CPT-11 was conducted to estimate the maximum tolerated dose (MTD) and recommended dose (RD) of CPT-11. The subjects had cancer of the rectum (excluding the rectosigmoid (Rs)) with a preoperative diagnosis of T3′ (tumors showing invasion through the muscularis propria into the subserosa, or into the nonperitonealized pericolic or perirectal tissues) or T4′ (tumors perforating the visceral peritoneum and/or directly invading other organs or structures), and N0 to N3′. Response rates and safety (percentage of adverse reactions and percentage of complications) were also evaluated with RD administration. (2) Subject selection
Level 1 (CPT-11, 40 mg/m^2) was the starting dose, and dose was titrated until the maximum tolerated dose could be estimated. […]
After the level of the maximum tolerated dose was confirmed, the recommended dose was determined by reducing the 10 mg/m^2 (one level) increments.
Maximum tolerated dose was determined on the basis of the adverse reactions observed during the first week after completing chemotherapy. (Maximum tolerated dose was evaluated in the modality of coadministration with radiation.)
Side effects were evaluated according to the National Cancer Institute Common Toxicity Criteria (Version 2.0; NCI-CTC). Effects not on the NCI-CTC form were scored on the following five-grade scale.

## CCc1c2c(nc3ccc(OC(=O)N4CCC(N5CCCCC5)CC4)cc13)-c1cc3c(c(=O)n1C2)COC(=O)[C@]3(O)CC [CPT-11, (4S)-4a, 11-diethyl-4β-hydroxy-9-[[4-(piperidin-1-yl)piperidin-1-yl]carbonyloxy]1H-pyrano[3′,4′:6,7]indolizino[1,2-b]quinoline-3,14-(4H,12H)dione hydrochloride salt]
  final recommended dose of CPT-11: 80 mg/m^2

From US20070036717A1, “Chemoradiotherapy with TS-1/camptothecins” (The Kitasato Gakuen Foundation, priority 2005, published 2007)
